Source: patent publication US9980948B2, “Azaindole derivative having AMPK-activating activity” (Shionogi & Co., Ltd., priority 2014, dated 2018)
Read-outs that look alike come from different tables or passages of the source.

Target: T1, Human AMPK α2β2γ1 (Homo sapiens, UniProt O43741+P54646)
T1 construct: The full length cDNAs of human AMPK β2 (NM_005399.3) and human AMPK α2 (NM_006252.3); The full length cDNAs of human AMPK β2 (NM_005399.3); the full length cDNA of human AMPK γ1 (NM_002733.3) had been inserted into pET28b(+); 6xHis (N); made in house; host or cells: Escherichia coli BL21 CodonPlus (DE3)-RTL (AMPK); BL21 Star (DE3) (CaMKKβ)
Assay: Test Example 2: evaluation of an activator for AMP-activated protein kinase (AMPK), human AMPK α2β2γ1 phosphorylated with CaMKK2, FL-Peptide 7 mobility shift
Format: biochemical
Settings: for EC150 (compound concentration showing 150% relative to the control (100%)): human AMPK α2β2γ1, 0.2 mM ATP final, 25° C., 2 hours; for Emax: read-out: Emax (maximum rate of increase in activity within the measurement range)
Experimental: The full length cDNAs of human AMPK β2 (NM_005399.3) and human AMPK α2 (NM_006252.3) were inserted into the MCS1 and MCS2 of the pETDuet-1 vector to prepare a human AMPK β2 and human AMPK α2 (6× His tag at the 5′ terminus) expressing plasmid. The plasmid was cotransfected with an expression plasmid, in which the full length cDNA of human AMPK γ1 (NM_002733.3) had been inserted into pET28b(+), into BL21 CodonPlus (DE3)-RTL to obtain an expression strain. The expression strain was cultured in TB medium, followed by induction with 0.5 mM IPTG, and cultured at 25° C. for 3 hours and then harvested.
An expression vector, in which the full length cDNA of human CAMKK β (NM_172226.1) had been inserted into pGEX-6P-3, was transfected into BL21 Star (DE3). The expression strain was cultured in TB medium, followed by induction with 0.5 mM IPTG, and cultured at 25° C. for 3 hours and then harvested.
Thus, phosphorylation treatment was carried out as pretreatment.
Human AMPK α2β2γ1 in an amount to give a conversion rate of approximately 10% by reaction for 2 hours, and CaMKK2 in an amount capable of sufficiently imparting activity to AMPK for one hour were mixed in a buffer solution consisting of a 50 mM HEPES-NaOH buffer solution (pH 7.0), 100 mM NaCl, 5 mM magnesium chloride, 0.1% bovine serum albumin, 0.2 mM sodium orthovanadate(V), 1 mM ethylene glycol-bis(2-aminoethyl ether)-N,N,N′,N′-tetraacetic acid (EGTA), 5 mM disodium β-glycerophosphate, 1 mM dithiothreitol and 0.2 mM ATP, and the obtained liquid was left to stand at 25° C. for 1 to 1.5 hours to sufficiently phosphorylate AMPK.
The obtained liquid was left to stand for 10 minutes.
The obtained liquid was allowed to react at 25° C. for 2 hours, and 10 μl of 20 mM EDTA was then added thereto to stop the reaction.
To detect phosphorylated fluorescent substrates, the reaction liquid was applied to a measuring device, LabChip EZ Reader II manufactured by Caliper Life Science, Inc., for detecting fluorescence by using differences in mobility due to differences in charge. The setting conditions for the device were pressure, −1.5 PSI; upstream voltage, −2250 V; downstream voltage, −400 V; post sample buffer sip time, 40 seconds; final delay, 120 seconds; and peak order, Product First.
A conversion rate was calculated from the peak heights of the resulting substrate and product. The conversion rate when not containing a compound was used as a control, and a concentration dependent curve was made by plotting the rate of increase in activity to the control at each concentration of a compound.

[1] = human AMPK α2β2γ1, relative to control (100%)

T1 sequence (P54646 whole entry): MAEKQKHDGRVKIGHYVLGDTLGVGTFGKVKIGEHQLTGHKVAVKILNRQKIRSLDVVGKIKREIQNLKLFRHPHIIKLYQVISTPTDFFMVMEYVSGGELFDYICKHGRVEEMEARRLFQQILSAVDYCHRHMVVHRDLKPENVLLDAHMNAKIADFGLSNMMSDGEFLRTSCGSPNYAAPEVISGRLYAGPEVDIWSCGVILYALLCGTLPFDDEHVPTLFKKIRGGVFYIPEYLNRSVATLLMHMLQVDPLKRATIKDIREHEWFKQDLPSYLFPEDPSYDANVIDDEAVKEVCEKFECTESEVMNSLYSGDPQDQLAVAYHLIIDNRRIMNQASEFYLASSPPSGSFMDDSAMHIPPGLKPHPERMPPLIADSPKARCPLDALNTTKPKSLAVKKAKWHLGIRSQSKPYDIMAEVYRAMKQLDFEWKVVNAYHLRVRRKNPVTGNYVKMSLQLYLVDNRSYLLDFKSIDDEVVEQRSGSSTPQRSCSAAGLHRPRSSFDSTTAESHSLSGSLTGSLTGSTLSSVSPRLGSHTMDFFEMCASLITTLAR
T1 sequence (O43741 whole entry): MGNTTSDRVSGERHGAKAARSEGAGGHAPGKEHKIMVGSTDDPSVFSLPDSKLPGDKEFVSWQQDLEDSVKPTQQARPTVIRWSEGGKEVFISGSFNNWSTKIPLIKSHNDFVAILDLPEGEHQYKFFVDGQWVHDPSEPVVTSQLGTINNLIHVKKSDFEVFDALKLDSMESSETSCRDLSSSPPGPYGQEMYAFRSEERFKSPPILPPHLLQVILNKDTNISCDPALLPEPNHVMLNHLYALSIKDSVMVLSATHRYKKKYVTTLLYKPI
T1 sequence (P54619 whole entry partner): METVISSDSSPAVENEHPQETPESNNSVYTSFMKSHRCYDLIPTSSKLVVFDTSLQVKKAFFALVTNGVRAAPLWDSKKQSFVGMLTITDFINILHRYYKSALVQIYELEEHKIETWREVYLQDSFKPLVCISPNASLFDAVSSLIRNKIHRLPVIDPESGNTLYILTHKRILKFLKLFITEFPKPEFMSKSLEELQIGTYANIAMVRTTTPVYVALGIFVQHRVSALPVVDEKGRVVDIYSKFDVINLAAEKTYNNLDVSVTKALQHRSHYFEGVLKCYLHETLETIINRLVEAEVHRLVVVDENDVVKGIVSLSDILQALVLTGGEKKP

Structure (SMILES)	EC150 (compound concentration showing 150% relative to the control (100%)) [nM]	Emax [1] [%]	Emax [%]	Emax (maximum rate of increase in activity within the measurement range) [1] [%]
N#Cc1cc2[nH]c(O[C@@H]3CO[C@H]4[C@@H]3OC[C@H]4O)cc2nc1-c1ccc(N2CCOCC2)cc1F [Compound I-2-42]	48	481		
Cn1cc(-c2ccc(-c3nc4c(C#N)c(O[C@@H]5CO[C@H]6[C@@H]5OC[C@H]6O)[nH]c4cc3Cl)cc2)cn1 [Compound I-2-11]	40	867		
O=C(CO)N1CC=C(c2ccc(-c3nc4cc(O[C@@H]5CO[C@H](CO)C5)[nH]c4cc3F)cc2)CC1 [Compound I-2-33]	2.5	511		
NC(=O)Nc1ccc(-c2ccc(-c3nc4cc(O[C@@H]5CO[C@H]6[C@@H]5OC[C@H]6O)[nH]c4cc3F)cc2)cc1 [Compound I-4-44]	1.6	518		
N#Cc1cc2[nH]c(O[C@@H]3CO[C@H]4[C@@H]3OC[C@H]4O)cc2nc1-c1ccc(-c2ccccc2)cc1 [Compound I-2-45]	19	492		
N#Cc1cc2[nH]c(O[C@@H]3CO[C@H]4[C@@H]3OC[C@H]4O)cc2nc1NC1CCc2cc(F)cc(F)c21 (stereo partly drawn) [Compound I-3-17]	40	492		
CN(C)CCOc1ccc(-c2ccc(-c3nc4c(C#N)c(O[C@@H]5CO[C@H]6[C@@H]5OC[C@H]6O)[nH]c4cc3Cl)cc2)cc1 [Compound I-1-37]	6	859		
O[C@@H]1CO[C@H]2[C@@H]1OC[C@H]2Oc1[nH]c2cc(Cl)c(-c3ccc(C4(O)CCC4)cc3)nc2c1Cl [Compound I-1-62]	5.7	851		
O[C@@H]1CO[C@H]2[C@@H]1OC[C@H]2Oc1cc2nc(-c3ccsc3)c(F)cc2[nH]1 [Compound I-3-24]	340	315		
CC(C)(C(=O)O)[C@H]1CC[C@H](Oc2cc3nc(-c4c(F)cc(N5CCOCC5)cc4F)c(Cl)cc3[nH]2)CC1 [Compound I-1-16]	810	204		
COC(=O)NC1CCN(c2ccc(-c3nc4cc(O[C@@H]5CO[C@H]6[C@@H]5OC[C@H]6O)[nH]c4cc3F)cc2)CC1 [Compound I-4-53]	10	509		
N#Cc1cc2[nH]c(O[C@@H]3CO[C@H]4[C@@H]3OC[C@H]4O)cc2nc1-c1ccc(C2=CCOCC2)cc1 [Compound I-2-19]	1.6	916		
CS(C)(=O)=Nc1ccc(-c2ccc(-c3nc4cc(O[C@@H]5CO[C@H]6[C@@H]5OC[C@H]6O)[nH]c4cc3F)cc2)nc1 [Compound I-3-12]	4.2	396		
O[C@@H]1CO[C@H]2[C@@H]1OC[C@H]2Oc1cc2nc(-c3ccc(C4(O)CCC4)cc3)c(F)cc2[nH]1 [Compound I-2-34]	20	495		
CN=S(C)(=O)c1ccc(-c2ccc(-c3nc4cc(O[C@@H]5CO[C@H]6[C@@H]5OC[C@H]6O)[nH]c4cc3F)cc2)cc1 (stereo partly drawn) [Compound I-4-1]	1.4	496		
COC(=O)NC1CC=C(c2ccc(-c3nc4cc(O[C@@H]5CO[C@H]6[C@@H]5OC[C@H]6O)[nH]c4cc3F)cc2)CC1 (stereo partly drawn) [Compound I-4-58]	4.3	486		
O[C@@H]1CO[C@H]2[C@@H]1OC[C@H]2Oc1[nH]c2cc(F)c(-c3ccc(C4=CCOCC4)cc3)nc2c1Cl [Compound I-1-45]	13	718		

Structure (SMILES)	EC150 (compound concentration showing 150% relative to the control (100%)) [nM]	Emax [1] [%]	Emax [%]	Emax (maximum rate of increase in activity within the measurement range) [1] [%]
CC(=O)Nc1nc(-c2ccc(-c3nc4cc(O[C@@H]5CO[C@H]6[C@@H]5OC[C@H]6O)[nH]c4cc3F)cc2)cs1 [Compound I-3-10]	7.9	391		
COc1ccc(-c2nc3cc(O[C@@H]4CO[C@H]5[C@@H]4OC[C@H]5O)[nH]c3cc2F)cc1 [Compound I-2-71]	89	446		
COc1nc(N2CC[C@@H](O)C2)ccc1-c1nc2cc(O[C@@H]3CO[C@H]4[C@@H]3OC[C@H]4O)[nH]c2cc1F [Compound I-2-78]	7.1	490		
CS(C)(=O)=Nc1ccc(-c2ccc(-c3nc4cc(O[C@@H]5CO[C@H]6[C@@H]5OC[C@H]6O)[nH]c4cc3F)cc2)cc1 [Compound I-3-40]	0.91		491	
CNS(=O)(=O)Nc1ccc(-c2ccc(-c3nc4cc(O[C@@H]5CO[C@H]6[C@@H]5OC[C@H]6O)[nH]c4cc3F)cc2)cc1 [Compound I-4-34]	4	431		
Cn1c(-c2nc3cc(O[C@@H]4CO[C@H]5[C@@H]4OC[C@H]5O)[nH]c3cc2F)cc2ccccc21 [Compound I-2-70]	38	511		
O=C(O)C1CC=C(c2ccc(-c3nc4c(Cl)c(O[C@@H]5CO[C@H](CO)C5)[nH]c4cc3Cl)cc2)CC1 (stereo partly drawn) [Compound I-1-55]	54	689		
O=C(O)C1CC=C(c2cc(F)c(-c3nc4cc(O[C@H]5CCOC5)[nH]c4cc3Cl)c(F)c2)CC1 (stereo partly drawn) [Compound I-1-23]	11	341		
O[C@@H]1CO[C@H]2[C@@H]1OC[C@H]2Oc1cc2nc(NC3CCc4cc(F)cc(F)c43)c(C(F)(F)F)cc2[nH]1 (stereo partly drawn) [Compound I-3-19]	120	543		
COc1cc(C2=CCOCC2)ccc1-c1nc2cc(O[C@@H]3CO[C@H]4[C@@H]3OC[C@H]4O)[nH]c2cc1F [Compound I-3-41]	31	500		
O=C(O)C1CC=C(c2ccc(-c3nc4c(Cl)c(O[C@@H]5CO[C@H]6[C@@H]5OC[C@H]6O)[nH]c4cc3Cl)cc2)CC1 (stereo partly drawn) [Compound I-1-20]	2.9	746		
O[C@@H]1CO[C@H]2[C@@H]1OC[C@H]2Oc1cc2nc(-c3ccc4scnc4c3)c(F)cc2[nH]1 [Compound I-3-14]	150	430		
O=C(O)C1CC=C(c2ccc(-c3nc4cc(O[C@H]5CCOC5)[nH]c4cc3Cl)cc2)CC1 (stereo partly drawn) [Compound I-1-8]	4.1	338		
O[C@@H]1CO[C@H]2[C@@H]1OC[C@H]2Oc1[nH]c2cc(C(F)(F)F)c(-c3ccc(N4CCOCC4)cc3)nc2c1F [Compound I-2-10]	49			506
O[C@@H]1CO[C@H]2[C@@H]1OC[C@H]2Oc1[nH]c2cc(Cl)c(-c3ccc(N4CCOCC4)cc3)nc2c1Cl [Compound I-1-11]	3.9	770		
CS(=O)(=O)c1ccc(-c2ccc(-c3nc4cc(O[C@@H]5CO[C@H]6[C@@H]5OC[C@H]6O)[nH]c4cc3F)cc2)nc1 [Compound I-4-41]	1.4	441		
